Entries after “also recorded” stand apart in the source; their conditions may differ.
How the values were obtained:
ptc>dRet^M955T flies [1] = assay: fly rough eye phenotype; settings: APS6-45 100 μM, AD80 100 μM
[2] = tested on: dRet^M955T-expressing wing cells; assay: in vivo cell migration assay in developing wing discs; settings: for ptc>dRet^M955T-mediated EMT and cell migration/invasion: wing discs of ptc>dRet^M955T larvae; for effect of reduced Lk6 on suppression of cell migration by compound: 765>dRet^M955T
Description: For in vivo cell migration assays, third-instar larvae were dissected to collect developing wing discs. After fixation with 4% paraformaldehyde in PBS, discs were whole-mounted and observed for dRet^M955T-expressing cells labeled with GFP under a confocal microscope. At least 20 wing discs were studied for each genotype or treatment. Phospho-Src was stained with anti-Src(pY418) antibody (Invitrogen).
In addition to directing late lethality, the ptc>dRet^M955T transgenes targeted dRet^M955T expression to a stripe of cells at the midline of the developing wing disc epithelium; cells were visualized with an included UAS-GFP transgene.

ptc>dRet^M955T flies [3] = assay: rescue-from-lethality assay in ptc>dRet^M955T flies (drug screening); type: in vivo, Drosophila; settings: drug in fly food, 25° C.
human RET = biological target: T1, human RET (Homo sapiens, UniProt P07949); assay: Kd measurement (KINOMEscan bead based competition assay), RET; type: binding; settings: cell-free in vitro
T1 construct: phage display fusion (kinase expressed on phage); purchased DiscoverX (KINOMEscan service); host or cells: phage
T1 sequence (P07949 29-1114): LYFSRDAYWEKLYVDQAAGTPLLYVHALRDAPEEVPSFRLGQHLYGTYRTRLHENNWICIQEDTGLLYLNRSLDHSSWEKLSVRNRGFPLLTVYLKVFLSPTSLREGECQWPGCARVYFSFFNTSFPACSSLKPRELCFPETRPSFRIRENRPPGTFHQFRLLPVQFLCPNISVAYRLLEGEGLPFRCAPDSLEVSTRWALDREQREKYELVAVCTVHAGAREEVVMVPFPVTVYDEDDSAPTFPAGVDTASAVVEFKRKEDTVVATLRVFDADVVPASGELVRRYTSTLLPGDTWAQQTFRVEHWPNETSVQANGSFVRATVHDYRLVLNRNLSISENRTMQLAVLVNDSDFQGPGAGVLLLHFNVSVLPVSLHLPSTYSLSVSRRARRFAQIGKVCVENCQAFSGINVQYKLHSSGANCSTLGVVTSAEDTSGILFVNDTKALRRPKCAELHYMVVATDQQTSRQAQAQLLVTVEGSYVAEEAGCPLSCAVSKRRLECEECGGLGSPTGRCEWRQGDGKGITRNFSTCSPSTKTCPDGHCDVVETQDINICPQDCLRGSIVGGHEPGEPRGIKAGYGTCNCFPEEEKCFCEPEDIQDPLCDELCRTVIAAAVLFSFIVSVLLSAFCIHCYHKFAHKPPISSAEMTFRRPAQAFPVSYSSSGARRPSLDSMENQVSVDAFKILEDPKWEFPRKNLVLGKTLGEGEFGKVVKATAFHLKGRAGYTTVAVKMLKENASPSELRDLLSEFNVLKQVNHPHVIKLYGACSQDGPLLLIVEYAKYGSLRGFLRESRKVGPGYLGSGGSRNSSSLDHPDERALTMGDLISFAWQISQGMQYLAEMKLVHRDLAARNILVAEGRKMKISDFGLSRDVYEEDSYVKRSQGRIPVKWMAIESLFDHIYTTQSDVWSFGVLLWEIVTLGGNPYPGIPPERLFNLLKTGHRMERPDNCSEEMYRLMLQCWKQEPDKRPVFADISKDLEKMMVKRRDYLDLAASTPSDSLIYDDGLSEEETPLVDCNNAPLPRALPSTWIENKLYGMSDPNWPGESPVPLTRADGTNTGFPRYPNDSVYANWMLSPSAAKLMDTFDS
Protocol: (§1) Kd values were determined by DiscoverX using a bead based competition assay (KINOMEscan). In brief, kinases were expressed on phage and immobilized on beads via active site-directed ligands. Test compounds were premixed with kinases and assayed for the ability to compete for immobilized ligands. Binding constants were calculated with a standard dose-response curve and the Hill equation, with Hill slope set to −1. […] For each sorafelog-kinase pair, an 11-point series ranging from 30,000 to 0.5 nM, in 3-fold dilutions, were used to derive Kd values. Kd values and s.e.m. are the average of two biological replicates.

TT human MTC cells = assay: soft agar colony formation assay; type: cell-based; settings: colonies at three weeks
Description: Imaged with ×40. […] Error bars, standard errors in triplicate.

MKNK1 = biological target: T2, MKNK1 (Homo sapiens, UniProt Q9BUB5); assay: Kd measurement (KINOMEscan bead based competition assay), MKNK1; type: binding; settings: in vitro
T2 construct: phage display fusion (kinase expressed on phage); purchased DiscoverX (KINOMEscan service); host or cells: phage
T2 sequence (Q9BUB5 whole entry, the tested form may be a part): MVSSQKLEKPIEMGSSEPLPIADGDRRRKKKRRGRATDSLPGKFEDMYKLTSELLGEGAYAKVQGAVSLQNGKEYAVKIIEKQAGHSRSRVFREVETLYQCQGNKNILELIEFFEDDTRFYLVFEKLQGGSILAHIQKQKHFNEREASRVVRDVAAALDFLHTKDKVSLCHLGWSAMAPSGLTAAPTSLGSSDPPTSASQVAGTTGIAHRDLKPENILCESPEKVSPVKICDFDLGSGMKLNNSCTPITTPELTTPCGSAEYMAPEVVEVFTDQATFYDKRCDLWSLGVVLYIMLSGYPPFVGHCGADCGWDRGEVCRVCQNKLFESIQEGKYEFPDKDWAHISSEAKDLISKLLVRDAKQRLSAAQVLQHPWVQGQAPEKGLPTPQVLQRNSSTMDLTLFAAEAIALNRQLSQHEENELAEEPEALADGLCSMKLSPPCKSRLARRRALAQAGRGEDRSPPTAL
Protocol: as §1

human BRAF = biological target: T3, human BRAF (Homo sapiens, UniProt P15056); assay: Kd measurement (KINOMEscan bead based competition assay), BRAF; settings: in vitro binding assay
T3 construct: phage display fusion (kinase expressed on phage); purchased DiscoverX (KINOMEscan service); host or cells: phage
T3 sequence (P15056 whole entry, the tested form may be a part): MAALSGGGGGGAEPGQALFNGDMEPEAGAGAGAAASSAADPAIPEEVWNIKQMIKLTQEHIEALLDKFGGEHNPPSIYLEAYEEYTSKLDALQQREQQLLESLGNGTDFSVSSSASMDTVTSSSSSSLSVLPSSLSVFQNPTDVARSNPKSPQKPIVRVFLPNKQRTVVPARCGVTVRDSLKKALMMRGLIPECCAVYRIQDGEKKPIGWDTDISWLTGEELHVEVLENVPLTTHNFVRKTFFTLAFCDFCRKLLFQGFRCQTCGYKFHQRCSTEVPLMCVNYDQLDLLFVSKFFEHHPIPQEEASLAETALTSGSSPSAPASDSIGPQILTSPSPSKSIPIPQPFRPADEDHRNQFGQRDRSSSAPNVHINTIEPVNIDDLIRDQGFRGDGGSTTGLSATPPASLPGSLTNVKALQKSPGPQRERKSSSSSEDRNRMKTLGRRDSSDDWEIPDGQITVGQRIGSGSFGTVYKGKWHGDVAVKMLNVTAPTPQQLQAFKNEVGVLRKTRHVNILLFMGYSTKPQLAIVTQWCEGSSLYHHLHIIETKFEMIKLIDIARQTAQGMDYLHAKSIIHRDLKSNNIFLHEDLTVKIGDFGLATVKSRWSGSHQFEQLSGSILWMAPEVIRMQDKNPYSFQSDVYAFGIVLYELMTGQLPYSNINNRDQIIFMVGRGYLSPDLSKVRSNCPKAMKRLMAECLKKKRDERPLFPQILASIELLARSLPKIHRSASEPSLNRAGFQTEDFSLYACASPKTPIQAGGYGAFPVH
Protocol: Kd values were determined by DiscoverX using a bead based competition assay (KINOMEscan). In brief, kinases were expressed on phage and immobilized on beads via active site-directed ligands. Test compounds were premixed with kinases and assayed for the ability to compete for immobilized ligands. Binding constants were calculated with a standard dose-response curve and the Hill equation, with Hill slope set to −1. […] Kd values and s.e.m. are the average of two biological replicates.

765>dRet^M955T flies = assay: wing venation assay in adult flies; settings: for ectopic wing venation in 765>dRet^M955T flies: doses tested
Description: More than 15 adult wings were scored for abnormal wing venation.

toleration assay in mice = type: in vivo, mouse; settings: female athymic nude mice, oral doses escalated from 0.1 up to 160 mg/kg/day
Protocol: Toleration assays for APS6-45 were performed by Washington Biotechnology (Baltimore, Md.). Briefly, five female athymic nude mice (5-6 weeks) were administered with increasing oral doses of APS6-45 starting at 0.1 mg/kg/day and observed for 2 days for signs of clinical distress such as weight loss, discharges, and morbidity.

TT cell tumors = assay: TT cell xenograft assay in nude mice; type: in vivo, mouse; settings: 10 mg/kg/day p.o.
Protocol: FIGS. 66C-E illustrate the effectiveness of the oral administration of APS6-45 to mice with xenografts. […] Dosing (10 mg/kg/day each) was started on day 0 after establishing TT cell tumors (˜120 mm^3) subcutaneously in nude mice. Error bars, standard errors (n=10). Cabo, cabozantinib; soraf, sorafenib. […] FIG. 66D and FIG. 67 illustrate Waterfall plots showing percent changes in tumor volume on day 30 relative to pretreatment baselines. Each bar represents a single animal. […] Asterisk, complete response. Two mice were lost during the course of the experiment due to unknown causes. Administration of APS6-45 had no effect on mouse body weight as illustrated in FIG. 66E (same legend as FIG. 66C).
Xenograft assays were also performed by Washington Biotechnology. 40 female nude mice (5-6 weeks) were implanted subcutaneously with TT cells. […]

[4] = pharmacokinetics assay in mice (clinical signs); type: in vivo, mouse; settings: male ICR mice, 20 mg/kg orally
Protocol: Phamacokinetics assays for APS6-45 were performed by Medicilon Preclinical Research (Shanghai, China). 20 mg/kg of APS6-45 was dosed orally to male ICR mice (5-6 weeks of age), and its plasma concentrations were determined at 0.25, 0.5, 1, 2, 4, 8, 10, and 24 hours post dosing.

RET(M918T) = biological target: T4, RET(M918T) (Homo sapiens, UniProt P07949, M918T); assay: Kd measurement (KINOMEscan bead based competition assay), RET(M918T); type: binding; settings: in vitro
T4 construct: phage display fusion (kinase expressed on phage); purchased DiscoverX (KINOMEscan service); host or cells: phage
T4 sequence (P07949 29-1114 M918T): as the sequence (P07949 29-1114) above, with M890T counted along it
Protocol: as §1

FRK = biological target: T5, FRK (Homo sapiens, UniProt P42685); assay: kinase percent inhibition measurement, FRK; type: biochemical; settings: cell-free kinase inhibition assay, compounds screened at 1 μM
T5 construct: purchased ThermoFisher
T5 sequence (P42685 whole entry): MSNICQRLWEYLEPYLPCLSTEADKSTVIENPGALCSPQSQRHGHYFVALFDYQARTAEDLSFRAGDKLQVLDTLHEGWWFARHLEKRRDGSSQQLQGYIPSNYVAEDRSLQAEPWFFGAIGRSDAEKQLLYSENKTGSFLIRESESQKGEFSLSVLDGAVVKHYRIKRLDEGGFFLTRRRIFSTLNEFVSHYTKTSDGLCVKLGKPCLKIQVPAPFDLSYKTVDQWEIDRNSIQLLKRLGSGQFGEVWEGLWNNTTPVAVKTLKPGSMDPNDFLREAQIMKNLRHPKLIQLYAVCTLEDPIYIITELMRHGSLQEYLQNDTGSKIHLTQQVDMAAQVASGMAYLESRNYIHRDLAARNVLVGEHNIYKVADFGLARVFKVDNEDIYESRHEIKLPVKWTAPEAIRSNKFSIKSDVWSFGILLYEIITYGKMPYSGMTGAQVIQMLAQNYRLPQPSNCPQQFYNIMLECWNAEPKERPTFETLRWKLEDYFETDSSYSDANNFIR
Protocol: (§2) The sorafelogs were assayed against a panel of purified human kinases (ThermoFisher) to measure percentage inhibition values and derive kinome profiles (FIG. 61). All compounds were screened at 1 μM, using two biological replicates to determine percent inhibition values. Detailed procedures for kinase reactions and assay formats are described at www.thermofisher.com/kinaseprofiling.

EPH = assay: kinase percent inhibition measurement, EPH; type: biochemical, human; settings: cell-free kinase inhibition assay, compounds screened at 1 μM
Protocol: as §2

ptc>dRet^M955T flies [5] = assay: kinome genetic modifier screening of ptc>dRet^M955T flies in the presence of drug; type: in vivo, Drosophila
non-oncogenic w^- flies = assay: whole-body toxicity in control, non-transformed flies; type: in vivo, Drosophila; settings: fed to control

Which rough eye phenotype (ptc>dRet^M955T flies [1]) does the source give for CC(C)n1nc(-c2ccc(NC(=O)Nc3cc(C(F)(F)F)ccc3F)cc2)c2c(N)ncnc21 [AD80, reference compound] here?
The rough eye phenotype was “did not”.

Which “ptc>dRet^M955T-mediated EMT and cell migration/invasion” value [2] does the source give for CNC(=O)c1cc(Oc2ccc(NC(=O)Nc3cc(C(F)(F)F)ccc3F)c(F)c2)ccn1 [APS3-69-1, 4-(3-Fluoro-4-(3-(2-fluoro-5-(trifluoromethyl)phenyl)ureido)phenoxy)-N-methylpicolinamide] here?
Its value is “strongly suppressed”.

With CNC(=O)c1cc(Oc2ccc(NC(=O)Nc3cc(C)ccc3F)cc2)ccn1 [APS4-35-1, 4-(4-(3-(2-Fluoro-5-methylphenyl)ureido)phenoxy)-N-methylpicolinamide] as the compound, how does the “rescue of ptc>dRet^M955T viability, in words” value (shortened to “rescue … in words”) (ptc>dRet^M955T flies [3]) read?
Its value is “poor whole animal activity relative to LS1-15; also recorded: reduced rescue”.

Which “rescue … in words” value (ptc>dRet^M955T flies [3]) does the source give for CNC(=O)c1cc(Oc2ccc(NC(=O)Nc3cc(C(F)F)ccc3F)cc2)ccn1 [APS4-54, 4-(4-(3-(5-(Difluoromethyl)-2-fluorophenyl)ureido)phenoxy)-N-methylpicolinamide] here?
The value was “poor whole animal activity relative to LS1-15; also recorded: reduced rescue”.

For CNC(=O)c1cc(Oc2ccc(NC(=O)Nc3cc(C(F)(F)C(F)(F)F)ccc3F)cc2)ccn1 [APS5-16-2, 4-(4-(3-(2-Fluoro-5-(perfluoroethyl)phenyl)ureido)phenoxy)-N-methylpicolinamide], which “RET binding / inhibition, in words” value (human RET) is on record?
The value was “retaining RET inhibition”.

And the MTC colony formation (TT human MTC cells)?
Its MTC colony formation is “Suppression of MTC colony formation”.

What about the “effect of reduced Lk6 on suppression of cell migration by compound” value (“effect of reduced Lk6” for short) [2] of the same compound?
The value was “not affected”.

And the “MKNK1 binding, in words” value (MKNK1)?
Its value is “significantly reduced MKNK1 binding”.

What about the “BRAF binding, in words” value (human BRAF) of the same compound?
The value was “significantly reduced BRAF binding”.

What about the “rescue … in words” value (ptc>dRet^M955T flies [3]) of the same compound?
Its value is “significant rescue; also recorded: strongly increased overall ptc>dRet^M955T survival beyond LS1-15”.

What about the “ectopic wing venation in 765>dRet^M955T flies” value (765>dRet^M955T flies) of the same compound?
Its value is “exclusively suppressed wing venation; also recorded: failed to promote ectopic wing venation”.

With CNC(=O)c1cc(Oc2ccc(NC(=O)Nc3cc(C(F)(C(F)(F)F)C(F)(F)F)ccc3F)cc2)ccn1 [APS6-45, 4-(4-(3-(2-Fluoro-5-(perfluoropropan-2-yl)phenyl)ureido)phenoxy)-N-methylpicolinamide] as the compound, how does the “signs of clinical distress (weight loss, discharges, morbidity)” value (toleration assay in mice) read?
Its value is “no such signs were observed”.

What about the “RET binding / inhibition, in words” value (human RET) of the same compound?
Its value is “retaining RET inhibition; also recorded: lower activity; also recorded: weakest RET binding”.

And the MTC colony formation (TT human MTC cells)?
The MTC colony formation was “Suppression of MTC colony formation”.

What about the “effect of reduced Lk6” value [2] of the same compound?
Its value is “not affected”.

And the “MKNK1 binding, in words” value (MKNK1)?
Its value is “only a small decrease”.

And the rough eye phenotype (ptc>dRet^M955T flies [1])?
The rough eye phenotype was “strongly suppressed; also recorded: strongly rescued the rough eye phenotype”.

And the “BRAF binding, in words” value (human BRAF)?
The value was “significantly reduced BRAF binding”.

What about the “TT cell tumor growth in nude mice” value (TT cell tumors) of the same compound?
Its value is “Suppression of TT cell growth in vivo”.

And the mouse body weight (TT cell tumors; xenograft study)?
The mouse body weight was “no effect”.

What about the “rescue … in words” value (ptc>dRet^M955T flies [3]) of the same compound?
Its value is “strongest efficacy; also recorded: strongly increased overall ptc>dRet^M955T survival beyond LS1-15”.

And the “rescue of ptc>dRet^M955T flies (rescued adults / total pupae, viability)” value (ptc>dRet^M955T flies [3]; optimal doses)?
The value was 84%.

What about the treatment-related clinical signs [4] of the same compound?
The treatment-related clinical signs was “No treatment-related clinical signs were observed”.

And the “ectopic wing venation in 765>dRet^M955T flies” value (765>dRet^M955T flies)?
Its value is “exclusively suppressed wing venation; also recorded: failed to promote ectopic wing venation”.

What about the “activity against oncogenic RET, in words” value (RET(M918T)) of the same compound?
Its value is “lower activity”.

For CNC(=O)c1cc(Oc2ccc(NC(=O)Nc3cccc(C(F)(F)F)c3)cc2)ccn1 [LS1-11-2, N-Methyl-4-(4-(3-(3-(trifluoromethyl)phenyl)ureido)phenoxy)picolinamide], which “rescue … in words” value (ptc>dRet^M955T flies [3]) is on record?
Its value is “reduced survival”.

With CNC(=O)c1cc(Oc2ccc(NC(=O)Nc3cc(C(F)(F)F)ccc3F)cc2)ccn1 [LS1-15, 4-(4-(3-(2-Fluoro-5-(trifluoromethyl)phenyl)ureido)phenoxy)-N-methylpicolinamide] as the compound, how does the “effect of reduced Lk6” value [2] read?
Its value is “reversed suppression”.

And the “ptc>dRet^M955T-mediated EMT and cell migration/invasion” value [2]?
Its value is “strongly suppressed”.

And the “inhibition of FRK kinase activity” value (FRK)?
Its value is “inhibit”.

And the “BRAF binding, in words” value (human BRAF)?
Its value is “significant binding”.

What about the “rescue … in words” value (ptc>dRet^M955T flies [3]) of the same compound?
Its value is “rescued viability significantly better than sorafenib; also recorded: most effective in rescuing lethality”.

And the “inhibition of EPH kinase activity” value (EPH)?
Its value is “inhibit”.

And the “wing venation at higher concentrations” value (765>dRet^M955T flies; higher concentrations / high doses that rescue ptc>dRet^M955T viability)?
The value was “suppressed venation; also recorded: did not promote ectopic wing venation”.

And the “wing venation at low dose” value (765>dRet^M955T flies; low dose (10 μM))?
The value was “enhanced venation; also recorded: stimulated significant excess wing vein material”.

What about the “viability of drug-treated ptc>dRet^M955T flies (kinase-proficient control)” value (ptc>dRet^M955T flies [5]; 23° C.) of the same compound?
The value was roughly 50%.

And the “survival to adulthood of ptc>dRet^M955T, Lk6^−/+ flies” value (ptc>dRet^M955T flies [5]; one active allele of Lk6 removed, in the presence of drug)?
Its value is 0%.

What about the “viability of ptc>dRet^M955T, phl^−/+ flies” value (ptc>dRet^M955T flies [5]; phl (Raf ortholog) heterozygous, in the presence of drug) of the same compound?
The value was 96%.

What does the source list for CNC(=O)c1cc(Oc2ccc(NC(=O)c3ccc(Cl)c(C(F)(F)F)c3)cc2)ccn1 [LS1-37, 4-(4-(4-Chloro-3-(trifluoromethyl)benzamido)phenoxy)-N-methylpicolinamide]?
ptc>dRet^M955T-mediated EMT and cell migration/invasion [2]: worsened cell migration; whole body toxicity (non-oncogenic w^- flies): toxic

Which “rescue … in words” value (ptc>dRet^M955T flies [3]) does the source give for CNC(=O)c1cc(Oc2ccc(NC(=O)Nc3ccc(Cl)c(C(F)(F)F)c3)c(F)c2)ccn1 [regorafenib, 4-(4-(3-(4-Chloro-3-(trifluoromethyl)phenyl)ureido)-3-fluorophenoxy)-N-methylpicolinamide, reference compound] here?
Its value is “weak efficacy”.

From patent US10519113B2, “Kinase inhibitor compounds, compositions, and methods of treating cancer” (ICAHN SCHOOL OF MEDICINE AT MOUNT SINAI, priority 2016, dated 2019)
